The results in this text go back to patent US12247087B2, “Biological active peptide for improving enzyme activity of ACE2 and application thereof” (priority 2023, dated 2025).

What is called inhibition is the percentage by which the read-out fell short of the control.

Peptide text beside a SMILES is read from it.

In one experiment the target is T1, ACE2 (Mus musculus, UniProt Q8R0I0).
T1 construct: taking 50 mg mice liver tissue, adding 500 μL lysis solution to perform the homogenization treatment; from tissue; host or cells: mouse liver tissue homogenate supernatant
T1 sequence (Q8R0I0 18-805): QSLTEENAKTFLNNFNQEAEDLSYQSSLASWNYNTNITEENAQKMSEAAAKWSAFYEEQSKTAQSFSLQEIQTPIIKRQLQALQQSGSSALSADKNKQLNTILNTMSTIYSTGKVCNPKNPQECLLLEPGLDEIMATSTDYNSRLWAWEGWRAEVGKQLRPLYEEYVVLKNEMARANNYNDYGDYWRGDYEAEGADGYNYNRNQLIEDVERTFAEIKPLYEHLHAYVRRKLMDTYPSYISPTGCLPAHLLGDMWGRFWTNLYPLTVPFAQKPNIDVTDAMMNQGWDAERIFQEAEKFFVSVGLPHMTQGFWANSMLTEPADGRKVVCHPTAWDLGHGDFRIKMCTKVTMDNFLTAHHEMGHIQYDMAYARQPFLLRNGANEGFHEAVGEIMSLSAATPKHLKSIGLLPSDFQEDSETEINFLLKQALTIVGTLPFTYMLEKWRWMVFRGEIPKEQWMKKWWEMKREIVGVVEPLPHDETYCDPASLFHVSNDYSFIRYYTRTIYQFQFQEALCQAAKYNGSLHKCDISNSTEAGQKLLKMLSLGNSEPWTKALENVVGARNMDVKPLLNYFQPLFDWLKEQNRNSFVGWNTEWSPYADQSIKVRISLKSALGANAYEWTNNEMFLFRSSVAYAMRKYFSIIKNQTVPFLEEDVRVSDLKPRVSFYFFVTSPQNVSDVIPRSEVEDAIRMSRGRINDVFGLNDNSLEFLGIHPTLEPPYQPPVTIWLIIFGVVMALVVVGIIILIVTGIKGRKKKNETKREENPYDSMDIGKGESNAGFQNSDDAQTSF
Description: ACE2 active fluorescence detection kit, influence of SCOL polypeptide on ACE2 enzyme activity in mice liver tissue supernatant. It is filed as biochemical. The method, then: Detection was performed by using Biyuntian ACE2 active fluorescence detection kit; the principle was as follows. […] When the substrate was fully cut by the ACE2, two ends of the polypeptide were separated, two fluorophores were separated, which led to detection of the fluorescence, such that the enzyme activity of the ACE2 protein enzyme can be sensitively detected by the fluorescence detection.
(1) preparation of samples: taking 50 mg mice liver tissue, adding 500 μL lysis solution to perform the homogenization treatment, centrifuging at 4° C. under 12000×g for 5 min, taking the supernatant for next step; […]
(3) adding 2 μL substrates in the 96 hole plate, individually adding 2.2 μL with concentration of 0.004, 0.008, 0.012, 0.016, 0.02 μg/μL of the total concentration in the PCR tubes, adding 8.8 μL supernatant sample in step (1), adding 96.8 μL buffer; and adding 11 μL lysis solution and 96.8 μL buffer in a blank control, mixing, sucking above 98 μL solution by a volley gun and adding to the 96 hole plate with substrates. Performing fluorescence detection by a fluorescence microplate reader after mixing, in particular, the setting temperature was at 37° C., the excitation wavelength was 325 nm, and the emission wavelength was 393 nm. […]

The target in experiment [1] is T2, novel coronavirus S protein-ACE2 protein binding (Homo sapiens, UniProt Q9BYF1).
T2 construct: purchased RayBio
T2 sequence (Q9BYF1 18-740): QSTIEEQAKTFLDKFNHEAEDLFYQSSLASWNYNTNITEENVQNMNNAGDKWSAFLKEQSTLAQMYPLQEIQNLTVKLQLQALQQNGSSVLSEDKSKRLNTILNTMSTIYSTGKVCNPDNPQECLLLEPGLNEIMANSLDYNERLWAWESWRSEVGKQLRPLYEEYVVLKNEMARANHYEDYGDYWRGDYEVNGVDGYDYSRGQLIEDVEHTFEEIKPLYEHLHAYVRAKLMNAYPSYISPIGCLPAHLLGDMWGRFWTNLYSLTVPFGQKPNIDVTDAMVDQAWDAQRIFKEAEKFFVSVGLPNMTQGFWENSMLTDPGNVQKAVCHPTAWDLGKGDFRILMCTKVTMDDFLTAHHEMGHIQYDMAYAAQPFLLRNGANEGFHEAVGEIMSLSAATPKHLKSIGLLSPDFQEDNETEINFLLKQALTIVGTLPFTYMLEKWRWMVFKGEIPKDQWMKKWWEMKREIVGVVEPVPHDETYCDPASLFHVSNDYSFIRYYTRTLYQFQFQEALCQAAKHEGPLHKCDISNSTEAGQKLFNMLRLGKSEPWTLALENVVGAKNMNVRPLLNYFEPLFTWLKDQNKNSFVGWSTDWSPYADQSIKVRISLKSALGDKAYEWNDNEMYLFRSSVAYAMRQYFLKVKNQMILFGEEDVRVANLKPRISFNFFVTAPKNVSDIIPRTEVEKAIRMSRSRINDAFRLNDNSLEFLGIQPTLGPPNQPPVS
Description: biochemical.

`CC[C@H](C)[C@H](N)C(=O)N1CCC[C@H]1C(=O)N[C@@H](CO)C(=O)N[C@H](C(=O)N[C@H](C(=O)N1CCC[C@H]1C(=O)N[C@@H](Cc1ccccc1)C(=O)N1CCC[C@H]1C(=O)N[C@@H](CO)C(=O)N[C@H](C(=O)N[C@H](C(=O)N[C@H](C(=O)N[C@@H](C)C(=O)N[C@H](C(=O)N[C@H](C(=O)N[C@H](C(=O)N[C@@H](CCSC)C(=O)O)[C@@H](C)O)[C@@H](C)O)[C@@H](C)O)C(C)C)[C@@H](C)O)[C@@H](C)O)[C@@H](C)O)[C@@H](C)O` [SCOL peptide, Ile-Pro-Ser-Thr-Thr-Pro-Phe-Pro-Ser-Thr-Thr-Val-Ala-Thr-Thr-Thr-Met] (H-IPSTTPFPSTTVATTTM-OH; N-terminus and C-terminus assumed): the “activity of the ACE2 in the samples with the increase of the SCOL polypeptide concentration” value at ACE2 (0.004-0.02 μg/μL) is “increasing trend”. On ACE2 (SCOL polypeptide concentration 0.02 μg/μL, 37° C.), the “highest ACE2 activity relative to the initial activity” value stood at 3.76 times. Also, in experiment [1], the “effect on S protein-ACE2 binding compared with the control group” value is given as “inhibiting effect”. Further, the inhibition at 800 µg/mL in experiment [1] (read-out: highest inhibition rate of binding between S protein and ACE2) amounted to 65%.
